According to patent US20240368157A1, “FORMS AND COMPOSITIONS OF A JAK2 INHIBITOR” (Ajax Therapeutics, Inc., priority 2023, published 2024):

Legend:
[1] = Dynamic vapor sorption (DVS); assay type: physicochemical; settings: for Hysteresis: in % (unit assumed); for weight gain during sorption: 5-95% RH; for XRPD pattern of the post-DVS sample: after DVS experiment; for hygroscopicity: judged from DVS sorption/desorption
Description: Moisture sorption/desorption data were collected on a Surface Measurement System DVS Intrinsic instrument. Samples were not dried prior to analysis. Sorption and desorption data were collected over a range from 5% to 95% RH to 5% RH at 10% RH increments under a nitrogen purge. The equilibrium criterion used for analysis was less than 0.0100% weight change in 5 minutes with a maximum equilibration time of 3 hours. Data were not corrected for the initial moisture content of the samples.

[2] = Interconversion slurry experiments; settings: interconversion slurries, ambient temperature to 65° C.
Description: Mixtures of Form H and Form I with Form B were utilized in these interconversion slurry experiments. […] The interconversion slurries were performed at ambient and elevated (65° C.) temperatures in various solvents and solvent mixtures.

[3] = Stability stress studies on Form B (RH/temperature exposure, XRPD); assay type: physicochemical
Description: Stability stress studies were conducted on Form B by exposing samples to three conditions: 57.5% RH/RT; 97.3% RH/RT, and 75% RH/40° C. and collecting XRPD data at two time points (14 and 28 days).

[4] = Slurry in water at ambient temperature (XRPD); assay type: physicochemical
physchem = settings: water

| Compound | Desorp Mass Change (%) ([1]; DVS cycle 1, target RH 5%) | Sorp Mass Change (%) ([1]; DVS cycle 1, target RH 5%) | Desorp Mass Change (%) ([1]; DVS cycle 1, target RH 15%) | Sorp Mass Change (%) ([1]; DVS cycle 1, target RH 15%) | Hysteresis ([1]; DVS cycle 1, target RH 15%) | Desorp Mass Change (%) ([1]; DVS cycle 1, target RH 25%) | Sorp Mass Change (%) ([1]; DVS cycle 1, target RH 25%) | Hysteresis ([1]; DVS cycle 1, target RH 25%) | Desorp Mass Change (%) ([1]; DVS cycle 1, target RH 35%) | Sorp Mass Change (%) ([1]; DVS cycle 1, target RH 35%) | Hysteresis ([1]; DVS cycle 1, target RH 35%) | Desorp Mass Change (%) ([1]; DVS cycle 1, target RH 45%) | Sorp Mass Change (%) ([1]; DVS cycle 1, target RH 45%) | Hysteresis ([1]; DVS cycle 1, target RH 45%) | Desorp Mass Change (%) ([1]; DVS cycle 1, target RH 55%) | Sorp Mass Change (%) ([1]; DVS cycle 1, target RH 55%) | Hysteresis ([1]; DVS cycle 1, target RH 55%) | Desorp Mass Change (%) ([1]; DVS cycle 1, target RH 65%) | Sorp Mass Change (%) ([1]; DVS cycle 1, target RH 65%) | Hysteresis ([1]; DVS cycle 1, target RH 65%) | also measured |
| --- | --- | --- | --- | --- | --- | --- | --- | --- | --- | --- | --- | --- | --- | --- | --- | --- | --- | --- | --- | --- | --- |
| CN(C)C(=O)Nc1cc(Oc2cnc3nc(Nc4cc(C(F)(F)F)cn(C)c4=O)n(C)c3c2C#N)ccn1 [Form B] | −0.0297 | 0.0003 | 0.0109 | 0.0327 | −0.0218 | 0.048 | 0.0627 | −0.0147 | 0.0903 | 0.0974 | −0.0071 | 0.1586 | 0.1439 | 0.0147 | 0.2045 | 0.1803 | 0.0241 | 0.2463 | 0.2227 | 0.0235 | weight gain during sorption ([1]; DVS): 0.43%; XRPD pattern of the post-DVS sample [1]: consistent with Form B; hygroscopicity [1]: non-hygroscopic; relative stability of anhydrous forms [2]: likely the most stable anhydrous form under the tested conditions; XRPD Result ([3]; 57.5% RH/RT, 14 days): Form B; XRPD Result ([3]; 57.5% RH/RT, 28 days): Form B; stability under stress conditions ([3]; 57.5% RH/RT, 97.3% RH/RT, 75% RH/40° C., 14 and 28 days): stable at the tested stress conditions; XRPD Result ([3]; 75.3% RH/40° C., 14 days): Form B; XRPD Result ([3]; 75.3% RH/40° C., 28 days): Form B; XRPD Result ([3]; 97.3% RH/RT, 14 days): Form B; XRPD Result ([3]; 97.3% RH/RT, 28 days): Form B; solid form after slurry in water (XRPD) ([4]; 5 days): remained unchanged |
| CN(C)C(=O)Nc1cc(Oc2cnc3nc(Nc4cc(C(F)(F)F)cn(C)c4=O)n(C)c3c2C#N)ccn1 [Form F] | −0.2589 | 0.0100 | −0.2193 | −0.0114 | −0.2079 | −0.1841 | −0.0296 | −0.1545 | −0.1477 | −0.0296 | −0.1181 | −0.1031 | −0.0202 | −0.0829 | −0.0428 | 0.0018 | −0.0446 | 0.0238 | 0.0282 | −0.0044 | Desorp Mass Change (%) ([1]; DVS cycle 1, target RH 75%): 0.0797%; Sorp Mass Change (%) ([1]; DVS cycle 1, target RH 75%): 0.0741%; Hysteresis ([1]; DVS cycle 1, target RH 75%): 0.0057; Desorp Mass Change (%) ([1]; DVS cycle 1, target RH 85%): 0.1545%; Sorp Mass Change (%) ([1]; DVS cycle 1, target RH 85%): 0.1344%; Hysteresis ([1]; DVS cycle 1, target RH 85%): 0.0201; Desorp Mass Change (%) ([1]; DVS cycle 1, target RH 95%): 0.2669%; Sorp Mass Change (%) ([1]; DVS cycle 1, target RH 95%): 0.2669%; weight gain during sorption ([1]; DVS): 0.3%; weight loss during the desorption step ([1]; DVS, 95-5% RH): 0.5%; XRPD pattern of the post-DVS sample [1]: consistent with Form F; hygroscopicity [1]: non-hygroscopic; solubility (physchem): < 1000 µg/mL; solid form after slurry in water (XRPD) ([4]; 3 days): converted completely to Form C |
